One compound from patent US11219632B2, “Skin pigmentation inhibitor” (Oriental Yeast Co., Ltd., priority 2017, dated 2022) can be followed below.

Common to all, as to type: in vivo, brown guinea pig
Data set [1] concerns pigmentation induced by ultraviolet. Briefly: Ultraviolet-induced skin pigmentation in brown guinea pigs, oral β-NMN (Example 1). The following applies: for ΔL value at ultraviolet irradiation site: oral 500 mg/kg body weight once a day. The text has this: (§1) Brown guinea pigs (Kw1: line A-1, supplied from Kiwa Laboratory Animals Co., Ltd.) used for the subsequent experiment were bred under SPF environment throughout the entire experimental period. As in a case of humans, it is known that pigmentation of the brown guinea pigs of Kw1: line A-1 is caused by ultraviolet irradiation.
(§2) First, an unanesthetized brown guinea pig was fixed on a fixed plate in an abdominal position, and the back skin was sheared with an electric hair clipper and shaved with an electric shaver. Among the shaved area of the back skin, a region obtained by cutting out a region corresponding to the irradiation site by attaching a tape for bookbinding to an adhesive fabric stretchable bandage (ELASTOPORE No. 50, Nichiban Co., Ltd.) was attached on a site other than the ultraviolet irradiation site, and thereby the region other than the radiation site was light-shielded. Further, the eyes of the guinea pig were also light-shielded from ultraviolet by attaching lint cloth with the adhesive fabric stretchable bandage. Thereafter, ultraviolet (UVB) irradiation was performed from a distance of 40 cm using five SE lamps (wavelength of 250 to 350 nm, FL20S E, Toshiba Corporation) attached to an ultraviolet irradiation apparatus (Y-798-II, Orion Electric Co., Ltd.).
(§3) Regarding oral administration, a solution in which β-NMN (Oriental Yeast Co., Ltd.) was dissolved in injection water (Otsuka Pharmaceutical Factory, Inc.) was orally administered forcedly using a disposable syringe made of polypropylene (Terumo Corporation) attached with a catheter (a nutrition catheter manufactured by JMS Co., Ltd.). […] A dosage was calculated from a body weight value on an administration day or a day close to the administration day, and the dosage was 5 mL/kg.
Effects of […] on pigmentation induced by ultraviolet were examined using brown guinea pigs.
First, six brown guinea pigs were divided into a group administered β-NMN (NMN group) and a group administered injection water (control group). A day performed this group dividing was considered day 0 of administration, and from the next day, the β-NMN solution or injection water was orally administered to the guinea pigs of each group once a day for 42 days. The β-NMN solution was administered at a dosage of 500 mg/kg body weight. […]
(Measurement of pigmentation) L values (brightness) of the skin of the ultraviolet irradiation site of each guinea pig were measured by using Chroma Meter (CR-300, Konica Minolta, Inc.) on the first irradiation day (day 0), and on days 14, 21, and 28. […] On days 0, 14 and 21, L values were measured before the ultraviolet irradiation, and on day 28, L values were measured in the morning. […]

A short description of data set [2]: Body weight of brown guinea pigs during oral β-NMN administration (Example 1). Conditions: for Body weight: oral 500 mg/kg. The protocol: First, six brown guinea pigs were divided into a group administered β-NMN (NMN group) and a group administered injection water (control group). A day performed this group dividing was considered day 0 of administration, and from the next day, the β-NMN solution or injection water was orally administered to the guinea pigs of each group once a day for 42 days. The β-NMN solution was administered at a dosage of 500 mg/kg body weight.
A body weight of each guinea pig was measured with an electronic balance in the morning once a week from the first administration day. The measurement was performed before the irradiation on the irradiation day, and before the administration on the β-NMN administration day.

Data set [3] deals with pigmentation induced by ultraviolet. Nature of the data set: Ultraviolet-induced skin pigmentation in brown guinea pigs, oral and transdermal β-NMN (Example 2). Conditions: for ΔL value at ultraviolet irradiation site: 28 days from first irradiation.
Text: as §1, §2, §3
Effects of β-NMN on pigmentation induced by ultraviolet were examined using brown guinea pigs.
Ethanol (lot number: DSM5187, Wako Chemical Co., Ltd.), 1,3-butanediol (lot number: TWQ 6672, Wako Pure Chemical Industries, Ltd.), and injection water (lot number: K5F71, Otsuka Pharmaceutical Factory, Inc.) were mixed at a ratio of 1:1:8 (a volume ratio), and used as a solvent. A solution dissolved β-NMN in this solvent at a concentration of 0.5% by mass was used as a β-NMN-containing external preparation.
First, six brown guinea pigs were divided into a group orally administered β-NMN and a group not administered β-NMN. […]

On to `NC(=O)c1ccc[n+]([C@@H]2O[C@H](COP(=O)([O-])O)[C@@H](O)[C@H]2O)c1` [NMN, Nicotinamide mononucleotide], for which the “ΔL value at ultraviolet irradiation site” value in data set [1] (day 14 after first irradiation) is given as 8.28; in data set [1] (day 21 after first irradiation) it was 8.99; in data set [1] (day 28 after first irradiation), 9.55; in data set [3] (NMN oral administration group (oral 500 mg/kg, solvent only on skin)), 6.01; in data set [3] (NMN transdermal & oral administration group (oral 500 mg/kg plus 0.05 mL of 0.5% by mass external preparation per site)) it was 5.20. For the same compound, the “Pigmentation compared to the control group” value in data set [1] (oral 500 mg/kg body weight once a day for 42 days) is “pigmentation was inhibited”. The Body weight in data set [2] (0 days after first administration) was 405 ± 22 g; in data set [2] (1 day after first administration) it was 408 ± 23 g; in data set [2] (8 days after first administration), 431 ± 23 g; in data set [2] (15 days after first administration) it was 462 ± 33 g; in data set [2] (22 days after first administration) it was 497 ± 34 g; in data set [2] (29 days after first administration), 529 ± 29 g. The Body weight was 551 ± 35 g in data set [2] (36 days after first administration) and 584 ± 33 g in data set [2] (43 days after first administration). Also, the “Body weight difference versus control group” value in data set [2] (oral 500 mg/kg once a day for 42 days) was “no significant difference in body weight”. Moreover, the “Pigmentation compared with the control group” value in data set [3] (oral administration only) is listed as “pigmentation was inhibited”. In data set [3] (transdermal administration in addition to oral administration), the “Pigmentation compared with only oral administration” value is on record as “pigmentation was further inhibited”.
